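Test compounds were applied to cells in 96-well plates for 48 hours at 5 doses. GI50: concentration for 50% inhibition of growth. TGI marks complete inhibition of growth.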
Assays:
Test in all cases: DTP human tumour cell line panel, 48 h
SN12C renal = system: SN12C renal
BT-549 breast = system: BT-549 breast
MCF7 breast = system: MCF7 breast
HL-60(TB) leukemia = system: HL-60(TB) leukemia
MDA-MB-231 breast = system: MDA-MB-231 breast
MALME-3M melanoma = system: MALME-3M melanoma
MOLT-4 leukemia = system: MOLT-4 leukemia
NCI-H226 lung = system: NCI-H226 lung
SK-MEL-28 melanoma = system: SK-MEL-28 melanoma
A498 renal = system: A498 renal
786-0 renal = system: 786-0 renal

Row | SMILES | TGI (SN12C renal) [µM] | TGI (BT-549 breast) [µM] | TGI (MCF7 breast) [µM] | TGI (HL-60(TB) leukemia) [µM] | TGI (MDA-MB-231 breast) [µM] | TGI (MALME-3M melanoma) [µM] | TGI (MOLT-4 leukemia) [µM] | TGI (NCI-H226 lung) [µM] | TGI (SK-MEL-28 melanoma) [µM] | TGI (A498 renal) [µM] | TGI (786-0 renal) [µM] | GI50 (BT-549 breast) [µM] | GI50 (MCF7 breast) [µM] | GI50 (MDA-MB-231 breast) [µM]
1 | CC(=O)O[C@H]1C#C/C=C\C#CC[C@@H]2C(=O)N(C(=O)OC(C)(C)C)[C@@H]12 | > 71.6 | > 81.4 | > 100 | 25.6 | > 100 | > 100 | > 53.5 | 84.8 | > 100 | > 100 | 51.7 | – | – | –
2 | Cc1cccc(C(C)(C)C)c1NC(=O)/C(Cc1nc2ccc([N+](=O)[O-])cc2[nH]c1=O)=N/NC(=O)C[N+](C)(C)C | > 100 | > 100 | > 100 | > 100 | > 100 | > 100 | > 100 | > 100 | > 100 | > 100 | > 100 | – | – | –
3 | Cc1cc(S(=O)(=O)Nc2nnc3c(C(F)(F)F)cc(Cl)cn23)c(S)cc1Cl | > 100 | > 100 | > 100 | > 100 | > 100 | > 100 | > 100 | > 100 | > 100 | > 100 | > 100 | – | – | –
4 | C/C(=N\NC(N)=O)C(CN1CCCCC1)C(c1ccccc1)c1c(O)c2ccccc2oc1=O (stereo unspecified) | > 100 | > 100 | > 100 | > 72.9 | > 100 | > 100 | > 94.4 | > 100 | > 100 | > 100 | > 59.5 | 86.7 | > 100 | > 100
5 | Cc1cc(Cc2c(F)c(F)c(Cc3cc(C)no3)c(F)c2F)on1 | > 100 | > 100 | > 100 | > 100 | > 100 | > 100 | > 100 | > 100 | > 100 | > 100 | > 100 | – | – | –
6 | O=C(N/N=C\c1cccc2ccccc12)Nc1ccc([N+](=O)[O-])cc1 | > 73 | > 66.4 | > 100 | > 100 | > 100 | > 69.4 | > 100 | > 100 | > 100 | > 100 | > 37.8 | – | – | –
7 | Cc1ccc2nc3c(C)c(Cl)c(=O)cc-3sc2c1 | > 100 | > 100 | 61.8 | 26.7 | 15.8 | > 71.5 | 41.3 | 64 | 99.2 | > 100 | > 100 | – | – | –
8 | O=C(O)/C=C(/CC(=O)O)C(=O)O | 40.7 | 43.7 | 39.3 | 42.9 | 48 | 37.3 | 38.4 | 45.6 | 43.7 | 32.7 | 33.3 | – | – | –
9 | COc1ccc(C(O)c2ccc3c(c2)OCO3)cc1 (stereo unspecified) | > 100 | > 100 | > 100 | > 100 | > 100 | > 100 | > 100 | > 100 | > 100 | > 100 | > 100 | – | – | –
10 | O=C1/C(=C/c2ccccc2)CCc2ccc(Cl)nc21 | 18.6 | 32.1 | 13.2 | 0.705 | 40.6 | 27.2 | 5.93 | 61.9 | 39.6 | 34.6 | 21.8 | – | – | –
11 | CCCn1c(C23CC4CC(CC(C4)C2)C3)nc2ccc(Cl)cc2c1=O | > 100 | > 100 | > 100 | > 100 | > 100 | > 100 | > 100 | > 100 | > 100 | 66.1 | > 100 | – | – | –
12 | COC(=O)C1=C(O)C(C(=O)OC)[C@@]2(O)[C@@H](C(=O)OC)C(c3ccc(OC(=O)/C(=C/c4ccc(Cl)cc4)c4ccc(Cl)cc4)cc3)C[C@@H]1[C@@H]2C(=O)OC (stereo partly specified) | > 100 | > 100 | > 100 | > 100 | 82.8 | > 100 | > 100 | 63.9 | > 100 | > 100 | > 100 | – | – | –
13 | Cc1nnc2cc(C(=O)O)c3ccccc3n2c1=O | > 10 | > 10 | > 10 | > 10 | > 10 | > 10 | > 10 | > 10 | > 10 | > 10 | > 10 | – | – | –
14 | O=C(O)C(CCc1ccccn1)c1ccccc1 (stereo unspecified) | > 100 | > 100 | > 100 | > 100 | > 100 | > 100 | > 100 | > 100 | > 100 | > 100 | > 100 | – | – | –
15 | CCOC(=O)c1cc2c(OC(C)=O)ccc(OC(C)=O)c2s1 | 5.11 | 4.97 | 11.8 | 2.97 | 4.64 | 3.6 | > 24 | 55 | 5.45 | 12.5 | 6.24 | – | – | –
16 | O=C(C1=C(C(=O)c2ccccc2)SC2(S1)C(C(=O)c1ccccc1)=C(C(=O)c1ccccc1)Sc1c2ssc1=O)c1ccccc1 | > 100 | > 100 | > 100 | 69.8 | > 100 | > 100 | > 100 | 55 | > 100 | 31.2 | > 100 | – | – | –
17 | COC(=O)C(/C(=N/NC(=O)c1ccncc1)C(=O)Nc1ccccc1OC)c1nc2ccc(Cl)cc2[nH]c1=O (stereo unspecified) | > 100 | > 100 | > 100 | > 100 | > 100 | > 100 | > 100 | > 100 | > 100 | > 100 | > 100 | – | – | –
18 | CC[C@]12C=CCN3CCC4(c5cc(N=Nc6ccccc6)c(OC)cc5N(C)[C@H]4[C@@](O)(C(=O)OC)[C@@H]1OC(C)=O)[C@@H]32 (stereo partly specified) | 35.7 | 35.6 | 34.4 | 38.1 | 31.6 | 33.5 | 34.6 | 51.5 | 36.8 | 32.2 | 32.4 | – | – | –
19 | CC(=O)N(CN1C(=O)CCC1C(=O)O)c1ccccc1 (stereo unspecified) | > 100 | > 100 | > 100 | > 100 | > 100 | > 100 | > 100 | > 100 | > 100 | > 100 | > 100 | – | – | –
20 | CCc1nnc(-n2c(C)nc3cc(Cl)ccc3c2=O)s1 | > 100 | > 100 | > 100 | > 100 | > 100 | 93.1 | > 100 | > 100 | > 100 | > 100 | 81.6 | – | – | –
21 | CN(CCc1ccc(Cl)c(Cl)c1)[C@H]1CCCC[C@H]1N1CCCC1 | > 100 | > 100 | > 100 | > 100 | > 100 | > 100 | > 100 | > 100 | > 100 | > 100 | > 100 | – | – | –
22 | C/C(=C/CO[Si](C)(C)C(C)(C)C)C(=O)N(C)c1ccccc1I | 31.1 | 35.8 | 30.6 | 32 | 28.3 | 28.3 | 72.9 | 32.4 | 35.7 | 31 | 31.7 | – | – | –
23 | COc1ccc(/C=C/c2cc(O)cc(OC)c2)cc1 | > 100 | > 100 | > 100 | > 100 | > 100 | > 100 | > 100 | > 100 | > 100 | > 100 | > 100 | – | – | –
24 | CCOC(=O)c1ccc(C(=O)C(C(C)=O)C(=O)OC(C)(C)C)n1C (stereo unspecified) | > 100 | > 100 | > 100 | > 100 | > 100 | > 100 | > 100 | > 100 | > 100 | > 100 | > 100 | – | – | –
25 | CCCCC[C@@H]1OCO[C@@]2(C)/C=C(C)/C=C/C(=O)O[C@H]([C@@H](C)[C@@H](O)[C@H](C)[C@@]3(O)C[C@@H](O[C@H]4C[C@@H](O)[C@H](O)[C@@H](C)O4)[C@H](C)[C@@H](C)O3)[C@@H](OC)/C=C/C=C(\C)C[C@@H]1[C@@H]2O (stereo in doubt) | 3.49 | 16.5 | 3.32 | 0.0587 | 1.59 | 0.308 | 0.809 | 0.0468 | 1.68 | 0.0829 | 0.676 | – | – | –
26 | CCOC(=O)c1nc2c3c(ncn2n1)Oc1c(c(-c2ccccc2)nn1-c1ccccc1)C3c1ccc(Cl)cc1 (stereo unspecified) | > 100 | > 100 | > 100 | > 100 | > 100 | > 100 | – | > 100 | > 100 | > 100 | > 100 | – | – | –
27 | CC(CCC(=O)O)[C@H]1CCC2[C@H]3C(CC[C@@]21C)[C@@]1(C)CCC(O)C[C@H]1C[C@@H]3O (stereo partly specified) | > 100 | > 100 | > 100 | > 100 | > 100 | > 100 | > 100 | > 100 | > 100 | > 100 | > 100 | – | – | –
28 | CCN(CC)CCO/N=C1\CC[C@H]2[C@@H]3CC=C4C[C@@H](O)CC[C@]4(C)[C@H]3CC[C@]12C | > 100 | 44.4 | 31.6 | 44.5 | 41.2 | 29.7 | 40.4 | 33.1 | 31.1 | 35.9 | 31.5 | – | – | –
29 | CC(NC(=O)/C(=C/c1ccccc1O)NC(=O)c1ccccc1)C(=O)O (stereo unspecified) | 48.1 | 50.2 | 21.6 | > 100 | 60 | > 100 | > 100 | 45.5 | > 100 | > 100 | 68.1 | – | – | –

Reference: PubChem BioAssay (NCI)
